Experimental data from patent US20250163119A1, “COMPOUNDS FOR THE TREATMENT OF DIABETES OR OBESITY” (Eli Lilly and Company, priority 2023, published 2025).
*1 amine or outer side, *2 acyl side, *3 side chain or, on linkers, in order; H or OH if unused. Where a SMILES comes first, the peptide text is derived from it. Side-chain parts run from the residue outwards. [ ]: non-standard residue; d: D form. The star is where a group is joined. C20 diacid = O=C(O)CCCCCCCCCCCCCCCCCCC(=O)*; γGlu = O=C(O)[C@H](CCC(=O)[*:2])N[*:1]; εLys = N[C@@H](CCCCN[*:1])C(=O)[*:2]; αMeL = CC(C)C[C@](C)(N)C(=O)O

What was measured:
human CRHR2 = target: T1, human CRHR2 (Homo sapiens, UniProt Q13324); assay: Human CRHR2 cAMP assay (HTRF) in HEK293 cells stably expressing human CRHR2; format: cell-based; conditions: HEK293 cells overexpressing human CRHR2; relative EC50, maximum 10 nM human UCN2; mean ± SE; read-out: hCRHR2 cAMP EC50 (pM, ± SE)
T1 construct: expressed in transfected cells
T1 sequence (Q13324 1-438 isoform Q13324-2): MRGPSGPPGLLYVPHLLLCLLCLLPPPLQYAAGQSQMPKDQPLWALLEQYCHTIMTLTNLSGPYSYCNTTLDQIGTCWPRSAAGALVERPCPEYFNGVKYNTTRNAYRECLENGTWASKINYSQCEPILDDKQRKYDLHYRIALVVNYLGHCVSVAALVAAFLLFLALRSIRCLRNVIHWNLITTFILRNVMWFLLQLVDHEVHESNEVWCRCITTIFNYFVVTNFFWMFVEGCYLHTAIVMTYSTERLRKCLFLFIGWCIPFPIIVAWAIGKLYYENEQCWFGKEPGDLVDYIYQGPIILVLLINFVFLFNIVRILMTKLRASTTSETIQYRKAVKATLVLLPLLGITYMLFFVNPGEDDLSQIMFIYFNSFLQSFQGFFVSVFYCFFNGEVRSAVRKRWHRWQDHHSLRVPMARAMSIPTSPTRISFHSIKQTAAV
In short: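 Frozen stable HEK293-CRHR1 or -CRHR2 cells are thawed into IBMX-containing (0.25 mM) casein/HEPES pH 7.4 MEM buffer. Peptide dilution series (1:3) are added, then CRHR1 cells sit 1 h at 37° C and CRHR2 cells 30 min at room temperature. Intracellular cAMP is then measured by HTRF.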

human CRHR1 = target: T2, human CRHR1 (Homo sapiens, UniProt P34998); assay: Human CRHR1 cAMP assay (HTRF) in HEK293 cells stably expressing human CRHR1; format: cell-based; conditions: HEK293 cells overexpressing human CRHR1; relative EC50, maximum 66 nM human UCN1; mean ± SE; read-out: hCRHR1 cAMP EC50 (pM, ± SE)
T2 construct: expressed in transfected cells
T2 sequence (P34998 24-415): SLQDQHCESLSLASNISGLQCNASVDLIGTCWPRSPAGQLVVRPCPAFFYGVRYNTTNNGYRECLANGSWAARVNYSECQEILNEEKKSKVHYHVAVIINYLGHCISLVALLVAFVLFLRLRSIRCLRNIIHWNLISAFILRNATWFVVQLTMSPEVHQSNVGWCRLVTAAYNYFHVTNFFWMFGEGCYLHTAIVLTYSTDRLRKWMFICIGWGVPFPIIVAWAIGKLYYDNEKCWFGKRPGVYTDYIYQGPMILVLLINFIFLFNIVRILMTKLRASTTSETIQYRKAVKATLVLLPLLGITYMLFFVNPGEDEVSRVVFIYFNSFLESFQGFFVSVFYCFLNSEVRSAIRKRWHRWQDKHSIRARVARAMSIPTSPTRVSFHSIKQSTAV
Procedure: The corticotropin-releasing hormone (CRH) receptor 1 and 2 (CRHR1 and CRHR2) are GPCRs that were functionally coupled to Gs proteins. Stimulation of these receptors results in an increased production of intracellular cAMP, which can be detected using standard in vitro technologies. In vitro activity of peptides was measured by the amount of cAMP formed in human CRHR1 and CRHR2 overexpressed cells.
Human CRHR1 and CRHR2 receptors were stably expressed in human embryonic kidney cells (HEK293) under control of a pcDNA expression vector. The HEK293 cell line was cultured in DMEM 1× (Gibco, 93-0152DK) supplemented with 10% FBS, 1 mM sodium pyruvate, 1×MEM NEAA, 1× GlutaMAX and 10 mM HEPES. The plasmids of human CRHR1-pQCXIP (T7364) and human CRHR2b-R2683puro (T16761) DNA were transfected into HEK293 cells using Lipo fectAMINE 3000 Transfection reagent (Invitrogen, L3000001). After 20 days under selection, the mRNA levels from different clones were measured to confirm the expression of human CRHR1 and CRHR2 genes. To determine the function of over-expressed CRHR cells, the intracellular cAMP levels in response to human UCN1 and UCN2 were measured and compared to the expression of CRHR1 and CRHR2 mRNA in each clone.
Human CRHR1 cells were cultured in DMEM 1× (Gibco, 93-0152DK) supplemented with 10% FBS, 1 mM sodium pyruvate, 1×MEM NEAA, 1×GlutaMAX, 10 mM HEPES, and 800 μg/ml G418. Human CRHR2 cells were cultured at the same media (DMEM 1×, 10% FBS, 1 mM sodium pyruvate, 1×MEM NEAA, 1×GlutaMAX, 10 mM HEPES) in the presence of 0.5 ug/mL puromycin. Cultured cells were grown to 90% confluency and harvested. The cells were frozen at 10×10e6/ml in a mixture of […] fetal bovine serum plus 7% DMSO and stored in liquid nitrogen until use.
On the day of the assay, the frozen cells were thawed and diluted in assay buffer (Phenol Red free MEM (Corning, 17-305-CV, lot #32121010), 0.1% Casein (Sigma C4765, lot #SLCG2120), 5 mM HEPES pH 7.4 containing 0.25 mM IBMX). 10 ul of human CRHR1 cells (25,000 cells) or 10 μL of human CRHR2 cells (5,000 cells) were dispensed into each well of white poly-D-lysine coated 384-well plates (Corning cat #354661). Test compounds diluted in DMSO were added (200 nL/well) in a 1:3 dilution series using ECHO acoustic liquid handler (Beckman). The mixture of cells and test compounds were incubated at 37° C. for 1 hour for the hCRHR1 plate, while the CRHR2 plates were incubated at room temperature for 30 min.
The amount of intracellular cAMP was quantitated using HTRF technology (Homogeneous Time Resolved Fluorescence; Cisbio) as per vendor instructions. Briefly, 10 uL CAMP-d2 conjugate and 10 uL anti-CAMP-cryptate conjugate in lysis buffer were incubated with the treated cells at room temperature for 60 min. The HTRF signal was immediately detected using an Envision plate reader (Perkin-Elmer) to calculate the ratio of fluorescence at 665 to 620 nm.
Raw fluorescence data for concentration curves of the peptides in Table 2 and Table 3 were converted to cAMP amount (pmol/well) using a cAMP standard curve generated for each experiment.

Row | EC50 (human CRHR2) [pM] | EC50 (human CRHR1) [pM] | SMILES
1 | 6.3 ± 2.1 | 1.1e+06 | CC[C@H](C)[C@H](NC(C)=O)C(=O)N[C@H](C(=O)N[C@H](C(=O)N[C@@H](CO)C(=O)N[C@@](C)(CC(C)C)C(=O)N[C@@H](CC(=O)O)C(=O)N[C@@H](C(=O)N1CCC[C@H]1C(=O)N[C@H](C(=O)NCC(=O)N[C@@](C)(CC(C)C)C(=O)N[C@@H](CC(C)C)C(=O)N[C@@H](CCC(N)=O)C(=O)N[C@H](C(=O)N[C@@H](CCCCN)C(=O)N[C@@H](CC(C)C)C(=O)N[C@@H](CCC(=O)O)C(=O)N[C@@H](CCC(N)=O)C(=O)N[C@@H](CCC(=O)O)C(=O)N[C@@H](CCCNC(=N)N)C(=O)N[C@@H](C)C(=O)N[C@@H](CCC(=O)O)C(=O)N[C@@H](CCCCN)C(=O)N[C@@H](C)C(=O)N[C@@H](CCCNC(=N)N)C(=O)N[C@@H](CCC(N)=O)C(=O)N[C@@H](CCC(N)=O)C(=O)N[C@@H](C)C(=O)N[C@@H](CCCCNC(=O)CC[C@H](NC(=O)CC[C@H](NC(=O)[C@@H](N)CCCCNC(=O)CCCCCCCCCCCCCCCCCCC(=O)O)C(=O)O)C(=O)O)C(=O)N[C@@H](CCC(=O)O)C(=O)N[C@@H](CC(N)=O)C(=O)N[C@H](C(=O)N[C@@H](CCC(=O)O)C(=O)N[C@H](C(=O)N[C@@H](CC(C)C)C(=O)N[C@@H](C)C(=O)N[C@@H](CCC(N)=O)C(=O)N[C@H](C(N)=O)C(C)C)[C@@H](C)CC)[C@@H](C)O)[C@@H](C)CC)[C@@H](C)O)C(C)C)[C@@H](C)O)C(C)C [SEQ ID NO: 38, Ac-IVTS αMeL D (D-Val) PTG αMeL LQIKLEQERAEKARQQAK(γE-γE-ϵK-CO-(CH2)18-CO2H)ENTEILAQV-NH2] (Ac-IVTS[αMeL]D[dV]PTG[αMeL]LQIKLEQERAEKARQQAK([γGlu-γGlu-εLys-C20 diacid])ENTEILAQV-NH2)
2 | 7.3 ± 0.8 | 3.7e+06 | CC[C@H](C)[C@H](NC(C)=O)C(=O)N[C@H](C(=O)N[C@H](C(=O)N[C@@H](CO)C(=O)N[C@@](C)(CC(C)C)C(=O)N[C@@H](CC(=O)O)C(=O)N[C@@H](C(=O)N1CCC[C@H]1C(=O)N[C@H](C(=O)NCC(=O)N[C@@](C)(CC(C)C)C(=O)N[C@@H](CC(C)C)C(=O)N[C@@H](CCC(N)=O)C(=O)N[C@H](C(=O)N[C@@H](CCCCN)C(=O)N[C@@H](CC(C)C)C(=O)N[C@@H](CCC(=O)O)C(=O)N[C@@H](CCC(N)=O)C(=O)N[C@@H](CCC(=O)O)C(=O)N[C@@H](CCCNC(=N)N)C(=O)N[C@@H](C)C(=O)N[C@@H](CCC(=O)O)C(=O)N[C@@H](CCCCN)C(=O)N[C@@H](C)C(=O)N[C@@H](CCCNC(=N)N)C(=O)N[C@@H](CCC(N)=O)C(=O)N[C@@H](CCC(N)=O)C(=O)N[C@@H](C)C(=O)N[C@@H](CCCCNC(=O)CC[C@H](NC(=O)[C@@H](N)CCCCNC(=O)CC[C@H](NC(=O)CCCCCCCCCCCCCCCCCCC(=O)O)C(=O)O)C(=O)O)C(=O)N[C@@H](CCC(=O)O)C(=O)N[C@@H](CC(N)=O)C(=O)N[C@H](C(=O)N[C@@H](CCC(=O)O)C(=O)N[C@H](C(=O)N[C@@H](CC(C)C)C(=O)N[C@@H](C)C(=O)N[C@@H](CCC(N)=O)C(=O)N[C@H](C(N)=O)C(C)C)[C@@H](C)CC)[C@@H](C)O)[C@@H](C)CC)[C@@H](C)O)C(C)C)[C@@H](C)O)C(C)C [SEQ ID NO: 39, Ac-IVTS αMeL D (D-Val) PTG αMeL LQIKLEQERAEKARQQAK(γE-ϵK-γE-CO-(CH2)18-CO2H)ENTEILAQV-NH2] (Ac-IVTS[αMeL]D[dV]PTG[αMeL]LQIKLEQERAEKARQQAK([γGlu-εLys-γGlu-C20 diacid])ENTEILAQV-NH2)
3 | 7.9 ± 1.3 | > 1e+07 | CC[C@H](C)[C@H](NC(C)=O)C(=O)N[C@H](C(=O)N[C@H](C(=O)N[C@@H](CO)C(=O)N[C@@](C)(CC(C)C)C(=O)N[C@@H](CC(=O)O)C(=O)N[C@@H](C(=O)N1CCC[C@H]1C(=O)N[C@H](C(=O)NCC(=O)N[C@@](C)(CC(C)C)C(=O)N[C@@H](CC(C)C)C(=O)N[C@@H](CCC(N)=O)C(=O)N[C@H](C(=O)N[C@@H](CCCCN)C(=O)N[C@@H](CC(C)C)C(=O)N[C@@H](CCC(=O)O)C(=O)N[C@@H](CCC(N)=O)C(=O)N[C@@H](CCC(=O)O)C(=O)N[C@@H](CCCNC(=N)N)C(=O)N[C@@H](C)C(=O)N[C@@H](CCC(=O)O)C(=O)N[C@@H](CCCCN)C(=O)N[C@@H](C)C(=O)N[C@@H](CCCNC(=N)N)C(=O)N[C@@H](CCC(N)=O)C(=O)N[C@@H](CCC(N)=O)C(=O)N[C@@H](C)C(=O)N[C@@H](CCCCNC(=O)CNC(=O)[C@H](CCCCN)NC(=O)[C@H](CCC(=O)O)NC(=O)[C@H](CCCCN)NC(=O)[C@H](CCC(=O)O)NC(=O)[C@H](CCCCN)NC(=O)[C@H](CCC(=O)O)NC(=O)CC[C@H](NC(=O)CCCCCCCCCCCCCCCCCCC(=O)O)C(=O)O)C(=O)N[C@@H](CCC(=O)O)C(=O)N[C@@H](CC(N)=O)C(=O)N[C@H](C(=O)N[C@@H](CCC(=O)O)C(=O)N[C@H](C(=O)N[C@@H](CC(C)C)C(=O)N[C@@H](C)C(=O)N[C@@H](CCC(N)=O)C(=O)N[C@H](C(N)=O)C(C)C)[C@@H](C)CC)[C@@H](C)O)[C@@H](C)CC)[C@@H](C)O)C(C)C)[C@@H](C)O)C(C)C [SEQ ID NO: 43, Ac-IVTS αMeL D (D-Val) PTG αMeL LQIKLEQERAEKARQQAK(GKEKEKE-γE-CO-(CH2)18-CO2H)ENTEILAQV-NH2]
